From ChEMBL document CHEMBL5154852, “Design, synthesis, and biological evaluations of substituted pyrazoles as pyrrolomycin analogues against staphylococcal biofilm” (Eur J Med Chem, 2022)
Values after ≈ are worked out from the molar mass of the structure shown. Values joined by “and” are separate entries in the source; they are usually repeats but may differ in a detail not shown here. Equal entries are not always repeated. Active and inactive are the calls of the source. No cut-off for these calls is given here.

Experiments:
Staphylococcus aureus [1] = test: Antimicrobial activity against methicillin-resistant Staphylococcus aureus USA300 LAC incubated for 24 hrs by broth microdilution method; format: functional
Staphylococcus aureus [2] = test: Antibacterial activity against vancomycin-susceptible methicillin-susceptible Staphylococcus aureus Newman incubated for 24 hrs by broth microdilution method; format: functional
Staphylococcus aureus [3] = test: Antibacterial activity against vancomycin-intermediate Staphylococcus aureus Mu50 incubated for 24 hrs by broth microdilution method; format: functional
Staphylococcus aureus [4] = test: Antimicrobial activity against methicillin-resistant Staphylococcus aureus NRS100 incubated for 24 hrs by broth microdilution method; format: functional
[5] = Selectivity index, ratio of IC50 for L02 cell cytotoxicity over MIC for vancomycin-susceptible methicillin-susceptible Staphylococcus aureus Newman; format: toxicity; conditions: human, L02 cells
Enterococcus faecalis [6] = test: Antibacterial activity against vancomycin-resistant, teicoplanin sensitive Enterococcus faecalis HS0847 incubated for 24 hrs by broth microdilution method; format: functional
[7] = Metabolic stability in monkey liver microsomes assessed metabolic bioavailability at 0.1 uM in presence of NADPH measured by LC-MS/MS analysis; format: ADME, Macaca mulatta, Microsome; conditions: rhesus monkey, read-out: Stability
Staphylococcus aureus [8] = test: Antimicrobial activity against methicillin-resistant Staphylococcus aureus USA400 MW2 incubated for 24 hrs by broth microdilution method; format: functional
[9] = Metabolic stability in dog liver microsomes assessed metabolic bioavailability at 0.1 uM in presence of NADPH measured by LC-MS/MS analysis; format: ADME, Canis lupus familiaris, Microsome; conditions: read-out: Stability
Enterococcus faecalis [10] = test: Antibacterial activity against vancomycin-resistant, teicoplanin resistant Enterococcus faecalis HS0649 incubated for 24 hrs by broth microdilution method; format: functional
Enterococcus faecalis [11] = test: Antibacterial activity against vancomycin-resistant, teicoplanin sensitive Enterococcus faecalis HS08257 incubated for 24 hrs by broth microdilution method; format: functional
Staphylococcus aureus [12] = test: Antimicrobial activity against methicillin and linezoid-resistant Staphylococcus aureus NRS271 incubated for 24 hrs by broth microdilution method; format: functional
[13] = Metabolic stability in mouse liver microsomes assessed metabolic bioavailability at 0.1 uM in presence of NADPH measured by LC-MS/MS analysis; format: ADME, Microsome; conditions: read-out: Stability
[14] = Metabolic stability in human liver microsomes assessed metabolic bioavailability at 0.1 uM in presence of NADPH measured by LC-MS/MS analysis; format: ADME, Microsome; conditions: read-out: Stability
Staphylococcus aureus [15] = test: Antibiofilm activity against methicillin-resistant Staphylococcus aureus USA300 LAC assessed as decrease in biofilm formation at 0.0625 ug/ml measured by crystal violet staining assay; format: functional, organism-based; conditions: dose 0.0625 µg/ml
Enterococcus faecalis [16] = test: Antibacterial activity against vancomycin-resistant, teicoplanin resistant Enterococcus faecalis HS06188 incubated for 24 hrs by broth microdilution method; format: functional
Enterococcus faecalis [17] = test: Antibacterial activity against vancomycin-resistant, teicoplanin sensitive Enterococcus faecalis VanB01 incubated for 24 hrs by broth microdilution method; format: functional
[18] = Cytotoxicity against human L02 cells after 72 hrs by CCK-8 assay; format: toxicity, cell-based

| Structure (SMILES) | MIC (Staphylococcus aureus [1]) [µg/mL] | MIC (Staphylococcus aureus [2]) [µg/mL] | MIC (Staphylococcus aureus [3]) [µg/mL] | also measured |
| --- | --- | --- | --- | --- |
| NC(=O)c1n[nH]c2c(=O)c3c(O)c(Cl)cc(Cl)c3oc12 | > 256 | > 256 | > 256 | – |
| O=C1c2ccccc2S(=O)(=O)c2c(C(F)(F)F)n[nH]c21 | > 256 | > 256 | > 256 | – |
| N#Cc1n[nH]c2c(=O)c3ccccc3sc12 | 32 (≈ 141 µM) | 8 (≈ 35.2 µM) | 32 (≈ 141 µM) | – |
| N#Cc1n[nH]c2c1S(=O)(=O)c1ccccc1C2=O | > 256 | > 256 | > 256 | – |
| O=C(c1cc(C(F)(F)F)n[nH]1)c1cc(Cl)c(Cl)cc1O | 0.0625 (≈ 0.192 µM) | 0.0625 (≈ 0.192 µM) | 0.0312 (≈ 0.0961 µM) | MIC (Staphylococcus aureus [4]): 0.5 µg/mL (≈ 1.54 µM); selectivity ratio [5]: > 13; MIC (Enterococcus faecalis [6]): 0.25 µg/mL (≈ 0.769 µM); Fh at 0.1 µM [7]: 28.6%; MIC (Staphylococcus aureus [8]): 0.25 µg/mL (≈ 0.769 µM); Fh at 0.1 µM [9]: 7.07%; MIC (Enterococcus faecalis [10]): 0.5 µg/mL (≈ 1.54 µM); MIC (Enterococcus faecalis [11]): < 0.125 µg/mL; MIC (Staphylococcus aureus [12]): > 128 µg/mL; Fh at 0.1 µM [13]: 10.1%; Fh at 0.1 µM [14]: 42%; Activity (Staphylococcus aureus [15]): Active; MIC (Enterococcus faecalis [16]): > 128 µg/mL; MIC (Enterococcus faecalis [17]): 0.5 µg/mL (≈ 1.54 µM); IC50 at 72 h [18]: 2.57 µM and 0.84 µg/mL |
| Cc1n[nH]c2c(=O)c3c(O)c(Cl)cc(Cl)c3oc12 | > 256 | > 256 | > 256 | – |
| O=C(c1cc(C(F)(F)F)n[nH]1)c1cc(Cl)c(F)cc1O | 0.25 (≈ 0.81 µM) | 0.25 (≈ 0.81 µM) | 0.25 (≈ 0.81 µM) | MIC (Staphylococcus aureus [4]): 0.25 µg/mL (≈ 0.81 µM); MIC (Enterococcus faecalis [6]): 0.5 µg/mL (≈ 1.62 µM); MIC (Staphylococcus aureus [8]): 0.25 µg/mL (≈ 0.81 µM); MIC (Enterococcus faecalis [10]): 1 µg/mL (≈ 3.24 µM); MIC (Enterococcus faecalis [11]): 0.5 µg/mL (≈ 1.62 µM); MIC (Staphylococcus aureus [12]): > 128 µg/mL; MIC (Enterococcus faecalis [16]): > 128 µg/mL; MIC (Enterococcus faecalis [17]): 1 µg/mL (≈ 3.24 µM) |
| N#Cc1n[nH]c2c(=O)c3c(O)c(Cl)cc(Cl)c3sc12 | 2 (≈ 6.41 µM) | 2 (≈ 6.41 µM) | 2 (≈ 6.41 µM) | – |
| O=c1c2[nH]nc(C(F)(F)F)c2sc2c(Cl)cc(Cl)c(O)c12 | 2 (≈ 5.63 µM) | 2 (≈ 5.63 µM) | 1 (≈ 2.82 µM) | – |
| O=C(O)c1n[nH]c2c(=O)c3c(O)c(Cl)cc(Cl)c3oc12 | > 256 | > 256 | > 256 | – |
| COC(=O)c1n[nH]c2c(=O)c3c(O)c(Cl)cc(Cl)c3oc12 | 16 (≈ 48.6 µM) | 4 (≈ 12.2 µM) | 16 (≈ 48.6 µM) | – |
| O=c1c2[nH]nc(C(F)(F)F)c2oc2c(Cl)cc(Cl)c(O)c12 | 2 (≈ 5.9 µM) | 1 (≈ 2.95 µM) | 1 (≈ 2.95 µM) | – |
| N#Cc1n[nH]c2c(=O)c3c(O)c(Cl)cc(Cl)c3oc12 | 8 (≈ 27 µM) | 4 (≈ 13.5 µM) | 8 (≈ 27 µM) | – |
| O=C1c2[nH]nc(C(F)(F)F)c2S(=O)(=O)c2c(Cl)cc(Cl)c(O)c21 | 256 (≈ 661 µM) | 128 (≈ 331 µM) | 256 (≈ 661 µM) | – |
| N#Cc1cc(C(=O)c2cc(Cl)cc(Cl)c2O)[nH]n1 | 2 (≈ 7.09 µM) | 2 (≈ 7.09 µM) | 2 (≈ 7.09 µM) | – |
| N#Cc1cc(C(=O)c2cc(Cl)c(Cl)cc2O)[nH]n1 | 0.25 (≈ 0.886 µM) | 0.25 (≈ 0.886 µM) | 0.25 (≈ 0.886 µM) | MIC (Staphylococcus aureus [4]): 0.5 µg/mL (≈ 1.77 µM); selectivity ratio [5]: > 12; MIC (Enterococcus faecalis [6]): 0.5 µg/mL (≈ 1.77 µM); Fh at 0.1 µM [7]: 85.6%; MIC (Staphylococcus aureus [8]): < 0.125 µg/mL; Fh at 0.1 µM [9]: 9.79%; MIC (Enterococcus faecalis [10]): 0.5 µg/mL (≈ 1.77 µM); MIC (Enterococcus faecalis [11]): 0.25 µg/mL (≈ 0.886 µM); MIC (Staphylococcus aureus [12]): 1 µg/mL (≈ 3.55 µM); Fh at 0.1 µM [13]: 10.2%; Fh at 0.1 µM [14]: 69.7%; Activity (Staphylococcus aureus [15]): Active; MIC (Enterococcus faecalis [16]): > 128 µg/mL; MIC (Enterococcus faecalis [17]): 1 µg/mL (≈ 3.55 µM); IC50 at 72 h [18]: 10.7 µM and 3.02 µg/mL |
| Cc1cc(C(=O)c2cc(C#N)n[nH]2)c(O)cc1F | 0.5 (≈ 2.04 µM) | 0.5 (≈ 2.04 µM) | 0.25 (≈ 1.02 µM) | – |
| N#Cc1cc(C(=O)c2cc(Cl)c(F)cc2O)[nH]n1 | 0.5 (≈ 1.88 µM) | 0.5 (≈ 1.88 µM) | 0.5 (≈ 1.88 µM) | – |
| O=C(O)c1cn(C2CC2)c2cc(N3CCNCC3)c(F)cc2c1=O [CIPROFLOXACIN] | 2 (≈ 6.04 µM) | 0.25 (≈ 0.754 µM) | 32 (≈ 96.6 µM) | IC50 at 72 h [18]: 12.2 µM and 4.05 µg/mL |
| Cc1cc(C(=O)c2cc(C(F)(F)F)n[nH]2)c(O)cc1F | 0.25 (≈ 0.867 µM) | 0.25 (≈ 0.867 µM) | 1 (≈ 3.47 µM) | – |
| O=C(c1cc(C(F)(F)F)n[nH]1)c1cc(F)c(F)cc1O | 0.5 (≈ 1.71 µM) | 0.5 (≈ 1.71 µM) | 1 (≈ 3.42 µM) | – |
| CN[C@H](CC(C)C)C(=O)N[C@H]1C(=O)N[C@@H](CC(N)=O)C(=O)N[C@H]2C(=O)N[C@H]3C(=O)N[C@H](C(=O)N[C@H](C(=O)O)c4cc(O)cc(O)c4-c4cc3ccc4O)[C@H](O)c3ccc(c(Cl)c3)Oc3cc2cc(c3O[C@@H]2O[C@H](CO)[C@@H](O)[C@H](O)[C@H]2O[C@H]2C[C@](C)(N)[C@H](O)[C@H](C)O2)Oc2ccc(cc2Cl)[C@H]1O [VANCOMYCIN] | – | – | 8 (≈ 5.52 µM) | MIC (Enterococcus faecalis [6]): 0.25 µg/mL (≈ 0.173 µM); MIC (Staphylococcus aureus [8]): < 0.125 µg/mL; MIC (Enterococcus faecalis [10]): 0.5 µg/mL (≈ 0.345 µM); MIC (Enterococcus faecalis [11]): < 0.125 µg/mL; MIC (Enterococcus faecalis [16]): 2 µg/mL (≈ 1.38 µM); MIC (Enterococcus faecalis [17]): 0.25 µg/mL (≈ 0.173 µM); IC50 at 72 h [18]: > 30 µM and > 43 µg/mL |
| O=c1c2ccccc2sc2c(C(F)(F)F)n[nH]c12 | > 256 | > 256 | > 256 | – |
